Experimental data from publication PMC11351036, “Biochemical characterization of a SusD-like protein involved in β-1,3-glucan utilization by an uncultured cow rumen Bacteroides” (mSphere, 2024).

Molecular target: T1, 41O1_SusD-like (uncultured Bacteroides sp., UniProt Z9V4V4YR65)
T1 construct: mature protein without predicted lipoprotein signal peptide, N-terminal 6-His tag (pET-28a(+)), E. coli BL21(DE3), codon-optimized gene, 57 kDa, monomer fraction used
T1 sequence (Z9V4V4YR65 22-505): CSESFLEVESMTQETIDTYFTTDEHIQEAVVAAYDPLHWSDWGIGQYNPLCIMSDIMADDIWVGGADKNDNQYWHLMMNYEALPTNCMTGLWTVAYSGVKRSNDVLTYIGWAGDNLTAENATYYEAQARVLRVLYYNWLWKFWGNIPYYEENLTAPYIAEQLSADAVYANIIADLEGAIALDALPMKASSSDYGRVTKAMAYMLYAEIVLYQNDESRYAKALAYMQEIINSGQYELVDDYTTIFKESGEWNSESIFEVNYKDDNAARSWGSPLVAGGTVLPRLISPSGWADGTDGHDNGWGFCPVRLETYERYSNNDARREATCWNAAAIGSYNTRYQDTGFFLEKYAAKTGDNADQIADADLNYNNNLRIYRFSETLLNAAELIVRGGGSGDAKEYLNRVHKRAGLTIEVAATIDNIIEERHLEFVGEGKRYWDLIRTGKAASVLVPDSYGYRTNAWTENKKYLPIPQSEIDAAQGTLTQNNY
Experiment: thermal shift, Tycho NT.[…] intrinsic fluorescence
Assay type: binding
Conditions: 0.5% (w/v) ligand, 10 µM protein, 20 mM Tris-HCl, 150 mM NaCl, pH 7.4

| SMILES | ∆T°C |
| --- | --- |
| OC[C@H]1O[C@@H](O[C@@H]2[C@@H](O)[C@H](O[C@H]3[C@H](O)[C@@H](CO)OC(O)[C@@H]3O)O[C@H](CO)[C@H]2O)[C@H](O)[C@@H](O)[C@@H]1O (some centres unmarked) [Laminaritriose] | 4.7 °C |
| OC[C@H]1O[C@@H](O[C@H]2[C@H](O)[C@@H](O)[C@H](O[C@H]3[C@H](O)[C@@H](O)C(O)O[C@@H]3CO)O[C@@H]2CO)[C@H](O)[C@@H](O)[C@@H]1O (some centres unmarked) [Cellotriose] | 1.2 °C |
